From ChEMBL document CHEMBL2074172, “Possible involvement of multiple P-glycoprotein-mediated efflux systems in the transport of verapamil and other organic cations across rat intestine” (Pharm Res, 1995)

Target: Multidrug resistance protein 1a (Rattus norvegicus) (UniProt Q6PSM0)
Experiment: TP_TRANSPORTER: serosal to mucosal transport in SD rat intestinal segment
Type: functional
Conditions: Sprague-Dawley, Intestine

Sequence of Multidrug resistance protein 1a (Rattus norvegicus) (Q6PSM0 as listed by the source): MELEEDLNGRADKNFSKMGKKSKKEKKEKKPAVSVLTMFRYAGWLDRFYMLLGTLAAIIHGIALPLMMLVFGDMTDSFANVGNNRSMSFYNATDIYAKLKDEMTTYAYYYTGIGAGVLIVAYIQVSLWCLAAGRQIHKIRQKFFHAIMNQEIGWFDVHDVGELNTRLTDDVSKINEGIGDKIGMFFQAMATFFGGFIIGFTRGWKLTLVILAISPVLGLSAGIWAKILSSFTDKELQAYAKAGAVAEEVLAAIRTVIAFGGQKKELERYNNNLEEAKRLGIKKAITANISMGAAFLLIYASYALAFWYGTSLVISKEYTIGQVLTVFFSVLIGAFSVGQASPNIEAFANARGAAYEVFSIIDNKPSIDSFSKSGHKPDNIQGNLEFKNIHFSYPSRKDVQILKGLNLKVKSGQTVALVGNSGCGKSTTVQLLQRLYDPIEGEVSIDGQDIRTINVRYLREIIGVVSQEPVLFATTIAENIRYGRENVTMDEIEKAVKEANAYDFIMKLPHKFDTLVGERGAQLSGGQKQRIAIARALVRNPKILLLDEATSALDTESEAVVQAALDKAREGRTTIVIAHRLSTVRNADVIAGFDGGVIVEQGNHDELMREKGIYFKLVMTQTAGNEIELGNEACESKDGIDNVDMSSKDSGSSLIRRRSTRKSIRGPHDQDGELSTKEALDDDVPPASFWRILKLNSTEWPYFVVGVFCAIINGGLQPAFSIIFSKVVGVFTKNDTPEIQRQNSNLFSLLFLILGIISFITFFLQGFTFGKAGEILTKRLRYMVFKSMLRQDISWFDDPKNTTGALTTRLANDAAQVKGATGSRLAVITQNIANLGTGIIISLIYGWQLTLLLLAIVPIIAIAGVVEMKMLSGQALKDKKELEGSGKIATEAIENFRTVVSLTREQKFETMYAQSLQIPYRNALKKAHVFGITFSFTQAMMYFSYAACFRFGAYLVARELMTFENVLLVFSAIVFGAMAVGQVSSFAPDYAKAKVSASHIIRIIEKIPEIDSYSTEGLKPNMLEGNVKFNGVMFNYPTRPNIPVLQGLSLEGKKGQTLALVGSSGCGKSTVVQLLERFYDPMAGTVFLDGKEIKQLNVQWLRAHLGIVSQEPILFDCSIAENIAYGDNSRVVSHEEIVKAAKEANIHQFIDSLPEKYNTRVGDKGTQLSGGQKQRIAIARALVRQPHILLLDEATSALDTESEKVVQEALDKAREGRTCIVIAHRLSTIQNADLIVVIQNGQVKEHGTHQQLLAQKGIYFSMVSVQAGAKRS

| SMILES | Activity |
| --- | --- |
| COc1ccc(CCN(C)CCCC(C#N)(c2ccc(OC)c(OC)c2)C(C)C)cc1OC (configuration not stated) | substrate [+] |
| CC(C)[N+](C)(CCOC(=O)C1c2ccccc2Oc2ccccc21)C(C)C | substrate [+] |
